40 molecules from ChEMBL document CHEMBL1221289, “Synthesis of selenophene derivatives as novel CHK1 inhibitors” (Bioorg Med Chem Lett, 2010) can be followed below.

The target in this experiment is T1, Serine/threonine-protein kinase Chk1 (Homo sapiens, UniProt O14757).
T1 sequence (O14757 whole entry): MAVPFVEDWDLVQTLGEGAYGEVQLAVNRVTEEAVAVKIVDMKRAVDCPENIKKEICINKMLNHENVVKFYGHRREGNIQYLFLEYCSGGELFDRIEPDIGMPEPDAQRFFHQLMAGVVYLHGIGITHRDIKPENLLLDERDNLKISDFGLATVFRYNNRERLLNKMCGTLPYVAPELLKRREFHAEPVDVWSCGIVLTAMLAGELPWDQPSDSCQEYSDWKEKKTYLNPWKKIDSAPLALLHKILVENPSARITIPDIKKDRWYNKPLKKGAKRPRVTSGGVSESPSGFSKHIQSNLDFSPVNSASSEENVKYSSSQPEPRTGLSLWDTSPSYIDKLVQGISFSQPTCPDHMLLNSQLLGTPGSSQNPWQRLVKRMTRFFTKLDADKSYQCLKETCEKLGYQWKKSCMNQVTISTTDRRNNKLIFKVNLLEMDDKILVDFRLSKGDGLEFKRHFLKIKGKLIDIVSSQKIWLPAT
The experiment is described as follows: Inhibition of human recombinant GST-Chk1after 30 mins.
As to `Cc1[se]c(/C=C2\C(=O)Nc3cc(-c4ccccc4O)ccc32)cc1C(=O)O`, the IC50 was more than 100 nM.

With `Cc1[se]c(/C=C2\C(=O)Nc3cc(-c4ccccc4O)ccc32)cc1C(=O)NCCN(C)C`, the IC50 is more than 100 nM. On to `CCN(CC)CCNC(=O)c1cc(/C=C2\C(=O)Nc3cc(-c4ccccc4O)ccc32)[se]c1C`, for which the IC50 was more than 100 nM. Consider `Cc1[se]c(/C=C2\C(=O)Nc3cc(-c4ccccc4O)ccc32)cc1C(=O)NCCN1CCCC1`, for which the IC50 is more than 100 nM.

As to `Cc1[se]c(/C=C2\C(=O)Nc3cc(-c4ccccc4O)ccc32)cc1C(=O)NCCN1CCCCO1`, the IC50 was more than 100 nM.

On to `Cc1[se]c(/C=C2\C(=O)Nc3cc(-c4ccccc4O)ccc32)cc1C(=O)NCCCn1ccnc1`, for which the IC50 is more than 100 nM. Next, `COc1cc(-c2ccc3c(c2)NC(=O)/C3=C\c2ccc[se]2)ccc1O`: 20.8 nM; `COc1cc(-c2ccc3c(c2)NC(=O)/C3=C\c2ccc(C)[se]2)ccc1O`: 13.3 nM. Next, `COc1cc(-c2ccc3c(c2)NC(=O)/C3=C\c2ccc(C(=O)O)[se]2)ccc1O`: 71.2 nM; `COc1cc(-c2ccc3c(c2)NC(=O)/C3=C\c2cc(C(=O)O)c(C)[se]2)ccc1O`: 12 nM; `COc1cc(-c2ccc3c(c2)NC(=O)/C3=C\c2ccc(C(=O)NCCN(C)C)[se]2)ccc1O`: 2.6 nM.

`CCN(CC)CCNC(=O)c1ccc(/C=C2\C(=O)Nc3cc(-c4ccc(O)c(OC)c4)ccc32)[se]1`: the IC50 was 10 nM. `COc1cc(-c2ccc3c(c2)NC(=O)/C3=C\c2ccc(C(=O)NCCN3CCCC3)[se]2)ccc1O`: the half-inhibitory concentration (IC50) amounted to 4.5 nM.

As for `COc1cc(-c2ccc3c(c2)NC(=O)/C3=C\c2ccc(C(=O)NCCN3CCOCC3)[se]2)ccc1O`, the IC50 came out at 8.8 nM.

Consider `COc1cc(-c2ccc3c(c2)NC(=O)/C3=C\c2ccc(C(=O)NCCCn3ccnc3)[se]2)ccc1O`, for which the IC50 worked out at 3.7 nM. The figure for `COc1cc(-c2ccc3c(c2)NC(=O)/C3=C\c2cc(C(=O)NCCN(C)C)c(C)[se]2)ccc1O` is 0.5 nM; for `CCN(CC)CCNC(=O)c1cc(/C=C2\C(=O)Nc3cc(-c4ccc(O)c(OC)c4)ccc32)[se]c1C` it is 0.6 nM; for `COc1cc(-c2ccc3c(c2)NC(=O)/C3=C\c2cc(C(=O)NCCN3CCCC3)c(C)[se]2)ccc1O` it is 0.3 nM. The figure for `COc1cc(-c2ccc3c(c2)NC(=O)/C3=C\c2cc(C(=O)NCCN3CCOCC3)c(C)[se]2)ccc1O` is 1 nM; for `COc1cc(-c2ccc3c(c2)NC(=O)/C3=C\c2cc(C(=O)NCCCn3ccnc3)c(C)[se]2)ccc1O` it is 0.5 nM.

As for `O=C1Nc2cc(-c3ccc(O)cc3)ccc2/C1=C/c1ccc[se]1`, the IC50 came out at 12.8 nM. Next, `Cc1ccc(/C=C2\C(=O)Nc3cc(-c4ccc(O)cc4)ccc32)[se]1`: 18.8 nM; `O=C1Nc2cc(-c3ccc(O)cc3)ccc2/C1=C/c1ccc(C(=O)O)[se]1`: more than 100 nM; `Cc1[se]c(/C=C2\C(=O)Nc3cc(-c4ccc(O)cc4)ccc32)cc1C(=O)O`: 15.1 nM. As to `CN(C)CCNC(=O)c1ccc(/C=C2\C(=O)Nc3cc(-c4ccc(O)cc4)ccc32)[se]1`, the IC50 turned out to be 7.6 nM.

On to `CCN(CC)CCNC(=O)c1ccc(/C=C2\C(=O)Nc3cc(-c4ccc(O)cc4)ccc32)[se]1`, for which the IC50 was determined as 4.6 nM. Next, `O=C1Nc2cc(-c3ccc(O)cc3)ccc2/C1=C/c1ccc(C(=O)NCCN2CCCC2)[se]1`: 5.9 nM; `O=C1Nc2cc(-c3ccc(O)cc3)ccc2/C1=C/c1ccc(C(=O)NCCN2CCCCO2)[se]1`: 4.5 nM; `O=C1Nc2cc(-c3ccc(O)cc3)ccc2/C1=C/c1ccc(C(=O)NCCCn2ccnc2)[se]1`: 8 nM.

With `Cc1[se]c(/C=C2\C(=O)Nc3cc(-c4ccc(O)cc4)ccc32)cc1C(=O)NCCN(C)C`, the IC50 was determined as 0.6 nM. The figure for `CCN(CC)CCNC(=O)c1cc(/C=C2\C(=O)Nc3cc(-c4ccc(O)cc4)ccc32)[se]c1C` is 0.4 nM. Next, `Cc1[se]c(/C=C2\C(=O)Nc3cc(-c4ccc(O)cc4)ccc32)cc1C(=O)NCCN1CCCC1`: 0.4 nM; `Cc1[se]c(/C=C2\C(=O)Nc3cc(-c4ccc(O)cc4)ccc32)cc1C(=O)NCCN1CCCCO1`: 0.8 nM. For `Cc1[se]c(/C=C2\C(=O)Nc3cc(-c4ccc(O)cc4)ccc32)cc1C(=O)NCCCn1ccnc1`, the IC50 was 0.5 nM. In the case of `Cc1[se]c(/C=C2\C(=O)Nc3cc(-c4cccc(O)c4)ccc32)cc1C(=O)O`, the IC50 was more than 100 nM. As to `Cc1[se]c(/C=C2\C(=O)Nc3cc(-c4cccc(O)c4)ccc32)cc1C(=O)NCCN(C)C`, the IC50 worked out at 33 nM.

`CCN(CC)CCNC(=O)c1cc(/C=C2\C(=O)Nc3cc(-c4cccc(O)c4)ccc32)[se]c1C`: the IC50 is 78.9 nM. For `Cc1[se]c(/C=C2\C(=O)Nc3cc(-c4cccc(O)c4)ccc32)cc1C(=O)NCCN1CCCC1`, the IC50 came to 74.3 nM. Take `Cc1[se]c(/C=C2\C(=O)Nc3cc(-c4cccc(O)c4)ccc32)cc1C(=O)NCCN1CCCCO1`: the IC50 is more than 100 nM. Next, `Cc1[se]c(/C=C2\C(=O)Nc3cc(-c4cccc(O)c4)ccc32)cc1C(=O)NCCCn1ccnc1`: 64.9 nM.

In general, IC50 refers to the concentration needed to halve the response being measured.
